Data on three compounds can be found in patent US20050182036A1, “Medicinal composition containing an HMG-CoA reductase inhibitor” (SANKYO COMPANY, LIMITED, priority 2002, published 2005).

Assay type in all cases: in vivo
Experiment [1] deals with blood concentration of total nitric oxides (NOx). As to the kind of experiment: Blood total nitric oxides (NOx) level in Beagle dogs after 11-day oral administration, NO3- + NO2- by HPLC. The following applies: male Beagle dogs, oral once daily, relative to pre-treatment average = 100, mean of 5 dogs. The text has this: Simvastatin and atorvastatin synthesized at Chemtech Labo., Inc. were used. Gamma-oryzanol was purchased from Riken Vitamin Co., Ltd. and used. Benfotiamine manufactured at Sankyo Co., Ltd. was used.
Male Beagle dogs of 5 months of age were purchased from Covance Research Products Inc. as the test animals and were used after accommodation breeding for approximately 5 months.
The required amount of the test substance calculated based on the body weight of the test animals was weighed and filled in gelatin capsules (TORPAC Inc., 1/2 oz). After filling up, the capsules were placed in a box divided up for every animal and stored under freezing until use.
The capsules filled up with the test substance were orally administered to the test animals once daily via an oral gavage between 9:00-12:30. The test animals were fasted for 2-3 hrs prior to each administration. The administration period was 11 days.
Approximately 10 mL of blood was collected from the cephalic vein of each dog on—14 and—7 day (the 1st and the 2nd week prior to administration) as well as 4, 8, and 12 days after administration. The animals were fasted for approximately 18 hrs before collection of the blood.
The collected blood was placed in a test tube and allowed to stand at room temperature for 30 min to 1 hour. Then the blood was centrifuged (approximately 1,600 g, for 10 min) and the resultant serum obtained was used for assays.
Nitric oxide synthesized by nitric oxide synthase (NOS) is rapidly converted to nitrate ion (NO3^−) and nitrite ion (NO2^−). Blood concentration of total nitric oxides (NOx) is represented by the sum of NO3^− and NO2^− assayed by HPLC.
Relative values of blood concentration of total nitric oxides (NOx) in animals treated with each dose of simvastatin or atorvastatin calcium, gamma-oryzanol, and benfotiamine alone as well as their medicinal compositions as described above were calculated against each converted average value calculated from that determined 2 weeks and one week before treatment into 100.

Experiment [2] can be described thus: Blood total cholesterol level in Beagle dogs after 11-day oral administration, enzymatic assay. To be noted: male Beagle dogs, oral once daily, relative to pre-treatment average = 100, mean of 5 dogs, mg/Kg: gamma-oryzanol 100, simvastatin 1. The text has this: (§1) Simvastatin and atorvastatin synthesized at Chemtech Labo., Inc. were used. Gamma-oryzanol was purchased from Riken Vitamin Co., Ltd. and used. Benfotiamine manufactured at Sankyo Co., Ltd. was used. Male Beagle dogs of 5 months of age were purchased from Covance Research Products Inc. as the test animals and were used after accommodation breeding for approximately 5 months. The required amount of the test substance calculated based on the body weight of the test animals was weighed and filled in gelatin capsules (TORPAC Inc., 1/2 oz). After filling up, the capsules were placed in a box divided up for every animal and stored under freezing until use. The capsules filled up with the test substance were orally administered to the test animals once daily via an oral gavage between 9:00-12:30. The test animals were fasted for 2-3 hrs prior to each administration. The administration period was 11 days. […] The animals were fasted for approximately 18 hrs before collection of the blood. […] In addition, total cholesterol content was assayed by enzymatic assay method while HDL, LDL, and triglyceride were determined by homogeneous method, chemically modified method, and enzymatic techniques, respectively. ALP was assayed by Bessey-Lowry method. Clinical Laboratory System (TBA-120FR, Toshiba Medical Systems Corporation) was used in all of these determinations. […] The values indicate average results calculated from 5 dogs per group.

A short description of experiment [3]: Blood LDL level in Beagle dogs after 11-day oral administration. To be noted: male Beagle dogs, oral once daily, relative to pre-treatment average = 100, mean of 5 dogs, mg/Kg: gamma-oryzanol 100, simvastatin 1.
Description: as §1

Experiment [4] in a line: Atherosclerosis index (LDL/HDL) in Beagle dogs after 11-day oral administration. To be noted: male Beagle dogs, oral once daily, relative to pre-treatment average = 100, mean of 5 dogs, mg/Kg: gamma-oryzanol 100, simvastatin 1.
Description: as §1

Setting [5] is: 4 Days after treatment, mg/Kg: benfotiamine 50, simvastatin 1, atorvastatin calcium 2.
Where [6] appears, read: 8 Days after treatment, mg/Kg: benfotiamine 50, simvastatin 1, atorvastatin calcium 2.
[7] abbreviates: 12 Days after treatment, mg/Kg: benfotiamine 50, simvastatin 1, atorvastatin calcium 2.

`CC(C)c1c(C(=O)Nc2ccccc2)c(-c2ccccc2)c(-c2ccc(F)cc2)n1CC[C@H](O)C[C@@H](O)CC(=O)O` [Atorvastatin calcium, (3R,5S)-7-[2-(4-fluorophenyl)-5-(1-methylethyl)-3-phenyl-4-phenylaminocarbonyl-1H-pyrrol-1-yl]-3,5-dihydroxyheptanoic acid]: the “Changes in blood NOx levels (%)” value in experiment [1] (setting [5]) came out at 117.7%; in experiment [1] (setting [6]), 114.1%; in experiment [1] (setting [7]), 117.9%.

For `C/C(=C(\CCOP(=O)(O)O)SC(=O)c1ccccc1)N(C=O)Cc1cnc(C)nc1N` [Benfotiamine], the “Changes in blood NOx levels (%)” value in experiment [1] (setting [5]) came out at 96.4%; in experiment [1] (setting [6]), 91.6%; in experiment [1] (setting [7]), 107.1%.

In the case of `CCC(C)(C)C(=O)O[C@H]1C[C@@H](C)C=C2C=C[C@H](C)[C@H](CC[C@@H]3C[C@@H](O)CC(=O)O3)[C@H]21` [Simvastatin, (+)-(1S,3R,7S,8S,8aR)-1,2,3,7,8,8a-hexahydro-3,7-dimethyl-8-[2-[ (2R,4R)-tetrahydro-4-hydroxy-6-oxo-2H-pyran-2-yl]ethyl]-1-naphthyl 2,2-dimethylbutyrate], the “Changes in blood NOx levels (%)” value in experiment [1] (setting [5]) is 101.6%; in experiment [1] (4 Days after treatment, mg/Kg: gamma-oryzanol 100, simvastatin 1), 101.6%; in experiment [1] (setting [6]), 85.5%; in experiment [1] (8 Days after treatment, mg/Kg: gamma-oryzanol 100, simvastatin 1) it was 85.5%; in experiment [1] (setting [7]) it was 121.9%; in experiment [1] (12 Days after treatment, mg/Kg: gamma-oryzanol 100, simvastatin 1), 121.9%. In addition, the entries for the “Changes in blood total cholesterol levels (%)” value in experiment [2] (4 Days after treatment), in experiment [2] (8 Days after treatment) and in experiment [2] (12 Days after treatment) were 94.8%, 94.1% and 92.4%, respectively. Moreover, the “Changes in blood LDL levels (%)” value was determined as 83.9% in experiment [3] (4 Days after treatment), 90.4% in experiment [3] (8 Days after treatment) and 81.3% in experiment [3] (12 Days after treatment). Further, the “Changes in atherosclerosis index (LDL/HDL) (%)” value in experiment [4] (4 Days after treatment) is given as 86.6%; in experiment [4] (8 Days after treatment), 93.8%; in experiment [4] (12 Days after treatment) it was 86.3%.
